Data: publication PMC8187357 (Communications Biology, 2021)
“And” between values parts separate entries of the source, which are not always exact repeats. Identical values can stand only once. Like-named read-outs stand apart in the source and are kept apart here.

Columns and labels:
[1] = biological target: T1, full-length human PD-L1 overexpressed in CHO-K1 cells (Homo sapiens, UniProt Q9NZQ7); assay: Cellular NMR (T2) binding, PD-L1 overexpressing CHO-K1 cells; details: for I/I0 / T2: trials 1-3
T1 construct: plasmid (pLVX puro-PD-L1; full-length human PD-L1); expressed in transfected cells; host or cells: CHO-K1 (lentiviral transduction)
T1 sequence (Q9NZQ7 19-290): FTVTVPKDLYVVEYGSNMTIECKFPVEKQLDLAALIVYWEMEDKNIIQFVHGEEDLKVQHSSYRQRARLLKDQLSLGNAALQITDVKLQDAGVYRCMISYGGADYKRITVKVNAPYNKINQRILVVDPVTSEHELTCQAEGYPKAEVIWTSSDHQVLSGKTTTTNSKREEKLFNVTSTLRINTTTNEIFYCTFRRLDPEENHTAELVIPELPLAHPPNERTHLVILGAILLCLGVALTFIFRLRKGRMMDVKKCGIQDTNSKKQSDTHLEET
Method: HEK293T cells were transfected with plasmid (pLVX puro-PD-L1; full-length human PD-L1) using Lenti-X packaging single shots (Takara Bio, Cat. Nos. 631275) as per the recommended kit protocol in order to generate lentiviral particles. The supernatant collected after 48 h containing the lentiviral particles was used for lentiviral transduction of CHO-K1 cells. The expression of PD-L1 on the CHO-K1 cells was determined by flow cytometry. Limiting dilution cloning was performed to isolate single clones of CHO-K1 cells expressing high levels of PD-L1.
PD-L1 transfected CHO-K1 cells were cultured in Ham’s F12 K medium (Cat#21127-022, Gibco) containing penicillin & streptomycin antibiotic solution and 10% FBS (cat#SH30071-03, HyClone) along with 4 µg/mL of puromycin (Cat#A11138-03, Gibco), and were grown at 37 °C, 5% CO2 in a humidified atmosphere in tissue culture treated flask. 80–90% confluent cells were detached with PBS containing 2 mM EDTA, counted and washed twice with phosphate-buffered saline, pH 7.4 and re-suspended in PBS(cat#14190-144 Gibco) at a density of 8 million cells per mL. The cell suspension in PBS was transferred in a 5 mm Norell NMR tube containing 5% D2O and NMR experiments were performed under ligand titration. Cells remained viable under these experimental conditions as assessed by Trypan Blue staining method.
NMR experiments were carried out using Bruker 800 MHz NMR spectrometer fitted with 5 mm TCI cryoprobe. The experiment was performed over 4 × 10^6 cells in 95% 1 X PBS, pH 7.4, after adding 5% (v/v) D2O at constant temperature 298 K employing the pulse sequence shown in Supplementary Fig. 1a. The FID obtained was processed employing TOPSPIN software version 3.5. The interaction studies of CA-170 and overexpressed cells were carried out using a two-point HSQC method by recording the first FID. Briefly, during the transfer of polarization from ^1H to ^13C in the forward INEPT part of the 2D [^13C, ^1H] HSQC experiment, an additional delay of 16 ms is introduced on the proton channel during which the signal decays due to transverse relaxation. A second experiment is recorded with this delay set to […], the experimental parameters used to record these two spectra are given in Supplementary Table 7. A representative NMR spectrum of superimposed first FID of modified 2D [^13C, ^1H] HSQC of CA-170 treatment with PD-L1 overexpressed CHO-K1 cells is shown in Supplementary Fig. 1b.
The signal at any point of time is related to the initial intensity as follows. I=Ioexp(−Δt/T2) Where Δt is the difference between initial and final time points and I and Io are the final and initial intensity respectively. The transverse relaxation time (T2) of the ligand protons is calculated from the signal intensity ratio obtained from the above experiments by using the following equation which can be obtained from the above relation (Supplementary Table 8). T2=Relaxationdelay(τ)/−log(I/I0) where I = Area of the peak with delay (16 ms delay); I0 = Area of the peak without delay (16 μs delay).

PD-L1 = biological target: T2, PD-L1 (Mus musculus, UniProt Q9EP73); assay: Rescue of PD-L1 mediated inhibition of proliferation, mouse splenocytes; format: cell-based; details: splenocyte-based assay
T2 construct: purchased R&D Systems 1019-B7-100
T2 sequence (Q9EP73 with tags, fused parts or gaps limits assumed): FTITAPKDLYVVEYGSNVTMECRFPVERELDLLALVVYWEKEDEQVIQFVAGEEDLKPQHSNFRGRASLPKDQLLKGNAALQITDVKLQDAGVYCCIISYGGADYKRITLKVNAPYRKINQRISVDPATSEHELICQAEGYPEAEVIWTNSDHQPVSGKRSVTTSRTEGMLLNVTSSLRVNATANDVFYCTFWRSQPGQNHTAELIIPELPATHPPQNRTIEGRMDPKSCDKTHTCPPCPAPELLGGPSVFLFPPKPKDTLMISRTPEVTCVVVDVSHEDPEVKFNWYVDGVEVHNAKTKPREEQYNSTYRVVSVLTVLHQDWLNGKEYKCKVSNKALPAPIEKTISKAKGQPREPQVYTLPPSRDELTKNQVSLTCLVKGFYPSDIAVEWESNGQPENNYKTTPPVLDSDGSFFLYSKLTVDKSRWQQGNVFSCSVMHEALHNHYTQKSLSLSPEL
Method: The ability of peptides, peptidomimetics, and small molecules were analyzed for their ability to rescue T-cell proliferation or IFN-γ release from the inhibitory activity of PD-L1 or PD-L2 in a splenocyte/PBMC-based functional assay as per the protocols reported in publication. […] For all in vitro assays, test agent stock was prepared in water and diluted further in the assay media to achieve test concentrations. Each experimental condition was carried out in triplicates. Percent rescue for a given test compound concentration was calculated by normalizing individual percent test agent proliferation or IFN-γ release values to percent anti-CD3 and anti-CD28 antibodies stimulated proliferation or IFN-γ release. EC50 values were derived by plotting transformed data into non-linear fit in sigmoidal dose–response curve using GraphPad Prism software (Version 7).

Pharmacokinetics in mice = format: in vivo, mouse
Method: Animals in Group 1 were administered with 5% w/v dextrose in water and Group 2 were administered with corresponding formulation listed in the Supplementary Table 6 through oral routes. Blood samples (approximately 40 μl) were collected under light isoflurane anesthesia from submandibular at predose, 0.08 (IV), 0.25, 0.5, 1, 2, 4, 8, and 24 h using sparse sampling technique. Plasma samples were separated by centrifugation of whole blood and stored below −70 °C until bioanalysis. All samples were processed for analysis by protein precipitation and analyzed with fit-for-purpose LC–MS/MS method.

Endothelin ETA, ETB = assay: CEREP 80 panel binding: Endothelin; details: 10 µM
Method: CEREP 80 panel assay was carried out by Eurofins Cerep Panlabs facility at France. A series of binding assays was carried out to understand the off-target toxicity of CA-170. CA-170 was tested at 10 μM test concentration in duplicates. Compound binding was calculated as a % inhibition of the binding of a radioactively labeled ligand specific for each target. In each experiment the respective reference compound was tested concurrently with CA-170, and the data were compared with historical values determined at Eurofins. The experiment was accepted in accordance with Eurofins validation standard operating procedure. The results are expressed as a percent of control specific binding; (measured specific binding / control specific binding) × 100 and as a percent inhibition of control specific binding; 100−(measured specific binding / control specific binding) × 100 obtained in the presence of CA-170. The IC50 values (concentration causing a half-maximal inhibition of control specific binding) and Hill coefficients (nH) were determined by non-linear regression analysis of the competition curves generated with mean replicate values using Hill equation curve fitting.

[2] = CA-170 5.0 µM, PD-L1 overexpressed CHO-K1
[3] = CA-170 7.5 μM, PD-L1 Overexpressed CHO-K1
[4] = CA-170 10.0 μM, PD-L1 Overexpressed CHO-K1
[5] = CA-170 15.0 μM, PD-L1 Overexpressed CHO-K1
[6] = CA-170 20.0 μM, PD-L1 Overexpressed CHO-K1
[7] = CA-170 40.0 μM, PD-L1 Overexpressed CHO-K1

**Q.** For C[C@@H](O)[C@H](NC(=O)N[C@@H](CC(N)=O)c1nc([C@@H](N)CO)no1)C(=O)O [CA-170], which I/I0 [1, 2] is on record?
**A.** 0.34 and 0.35

**Q.** And the T2 [1, 2]?
**A.** 29.67 mS and 35.08 mS and 33.97 mS

**Q.** What about the I/I0 [1, 3] of the same molecule?
**A.** 0.43 and 0.4 and 0.49

**Q.** What about the T2 [1, 3] of the same molecule?
**A.** 43.70 mS and 51.60 mS and 41.00 mS

**Q.** What about the I/I0 [1, 4] of the same molecule?
**A.** 0.45 and 0.47 and 0.39

**Q.** And the T2 [1, 4]?
**A.** 46.10 mS and 48.48 mS and 38.70 mS

**Q.** What about the I/I0 [1, 5] of the same molecule?
**A.** 0.55 and 0.48 and 0.49

**Q.** And the T2 [1, 5]?
**A.** 61.50 mS and 50.00 mS and 52.00 mS

**Q.** And the I/I0 [1, 6]?
**A.** 0.57 and 0.53 and 0.51

**Q.** What about the T2 [1, 6] of the same molecule?
**A.** 66.12 mS and 58.18 mS and 55.36 mS

**Q.** And the I/I0 [1, 7]?
**A.** 0.58 and 0.55 and 0.57

**Q.** What about the T2 [1, 7] of the same molecule?
**A.** 67.51 mS and 61.50 mS and 66.67 mS

**Q.** And the “binding to PD-L1 overexpressed in the cellular context (in words)” value ([1]; cell-based NMR)?
**A.** specific interaction of CA-170 to PD-L1

**Q.** What about the EC50 (PD-L1) of the same molecule?
**A.** 0.0154 ± 0.0013 µM

**Q.** What about the AUC (Pharmacokinetics in mice; male, CD-1, mouse, plasma, mice, intravenous 1 mg kg−1, read-out: Mice PK parameters AUCi iv(0-α)) of the same molecule?
**A.** 4200 ng·h/mL

**Q.** And the clearance (Pharmacokinetics in mice; male, CD-1, mouse, plasma, mice, intravenous 1 mg kg−1, read-out: Mice PK parameters Clearance (converted))?
**A.** 12.1 mL/min/kg

**Q.** What about the bioavailability (Pharmacokinetics in mice; male, CD-1, mouse, plasma, mice, iv 1 mg kg−1, oral 30 mg kg−1, read-out: Mice PK parameters % F) of the same molecule?
**A.** 50%

**Q.** And the AUC (Pharmacokinetics in mice; male, CD-1, mouse, plasma, mice, oral 30 mg kg−1, read-out: Mice PK parameters AUC po (0-α))?
**A.** 19600 ng·h/mL

**Q.** And the Cmax (Pharmacokinetics in mice; male, CD-1, mouse, plasma, mice, oral 30 mg kg−1, read-out: Mice PK parameters Cmax)?
**A.** 1720 ng/mL

**Q.** And the half-life (Pharmacokinetics in mice; male, CD-1, mouse, plasma, preclinical PK exposure)?
**A.** 3.4 h

**Q.** What about the “oral bioavailability (in words)” value (Pharmacokinetics in mice; mouse, in vivo, po) of the same molecule?
**A.** good oral bioavailability

**Q.** And the “% Inhibition of Control Specific Binding” value (Endothelin ETA, ETB)?
**A.** ≤ 9%
